Results on 2 compounds are retold here after EP0140395A1, “Water soluble derivatives of 1-(2-hydroxyethyl)-2-methyl-5-nitro-imidazole having therapeutical activity, process for its preparation and related pharmaceutical compositions” (Pietro Isnardi & C. Spa, priority 1983, dated 1985).

Data set [1] in a line: Toxicity (LD50) in the rat. The following applies: in vivo. An excerpt:
(§1) The compound of the invention has been pharmacologically tested.
(§2) As regards the toxicity the following results were found: […]

A short description of data set [2]: Toxicity (LD50) in the mouse. The following applies: in vivo.
Text: as §1, §2

A further data set has as its system Trichomonas vaginalis. The data set is described as follows: Minimum inhibiting concentration in five strains, in comparison with metronidazole. In kind it is cell-based. The following applies: for MIC: average over five strains of Trichomonas vaginalis, metronidazole as 1 mg/ml solution in dimethyl sulfoxide, compound of the invention as 1 mg/ml water solution. On the procedure:
The minimum inhibiting concentration (MIC) was investigated in five strains of Trichomonas vaginalis, in comparison with metronidazole.
Metronidazole was tested in form of a solution in dimethyl sulfoxide at a concentration of 1 mg/ml whereas the compound of the invention was tested in form of a water solution at a concentration of 1 mg/ml.

A short description of a further data set: Kinetic tests in the rat. Format: in vivo.
Data set [3] in a line: Solubility of the compound. Format: physicochemical.

≈ marks a conversion by molar mass, not a printed value.

In general, LD50 refers to the dose expected to kill half of the subjects tested. Lower therefore signals a more toxic substance. Usually MIC stands for the lowest concentration that inhibits growth of the organism. Low readings indicate a more susceptible organism, high ones a less susceptible organism. As to `Cc1ncc([N+](=O)[O-])n1CCOC(=O)NCCCCC(N)C(=O)O` (centres unmarked) [compound of the invention, N-(5-carboxy-5-aminopentan)-carbamic ester of 1-(2-hydroxyethyl)-2-methyl-5-nitro-imidazole], the median lethal dose (LD50) is 870 mg/kg in data set [1] (ip); 1620 mg/kg in data set [1] (po, per os); greater than 4000 mg/kg in data set [2] (ip); greater than 4000 mg/kg in data set [2] (po, per os). The compound further displayed a minimal inhibitory concentration (MIC) with Trichomonas vaginalis of 2.5 µg/mL (≈ 7.28 µM). For the same compound, in the data set with Trichomonas vaginalis (preliminary tests, compared with metronidazole), the microbiological activity entry is “greater microbiological activity”. The conversion into metronidazole entry in “Kinetic tests in the rat” (in the organism and in acidic environment) is recorded as “not converted into metronidazole neither in the organism nor in acidic environnment”. Moreover, the dose excreted in the data set “Kinetic tests in the rat” (urine, after parenteral administration, read-out: urinary excretion) was less than 30%. In addition, the “solubility in anhydrous alcohols, acetone and chloroform” value in data set [3] (anhydrous alcohols, acetone and chloroform) is recorded as “insoluble”. Further, the solubility in water entry in data set [3] (water) was “perfectly soluble in water”.

The compound `Cc1ncc([N+](=O)[O-])n1CCO` [metronidazole, 1-(2-hydroxyethyl)-2-methyl-5-nitro-imidazole] gave an MIC in the data set with Trichomonas vaginalis of 5 µg/mL (≈ 29.2 µM).
